SMILES	melting point [°C]
COc1c(Br)cc(Br)c(OC)c1C(=O)O	108 to 110
COCCOc1ccc(C=O)c(Oc2ncc(C(F)(F)F)cc2Cl)c1	80.5 to 81
CNC(=S)C1(c2cccnc2)CCCCC1=O (stereo not given)	188 to 190
CNc1nc(N)ncc1-c1ccc(Cl)cc1Cl	189 to 190
O=C(CCl)Nc1ccc2c(c1NC(=O)c1ccccc1C(F)(F)F)C(=O)c1ccccc1C2=O	248 to 250
CCCc1c(OCCCOc2cc(N)c(Cl)cc2C)ccc(C(C)=O)c1O	81
CN(c1cccc2cc(C3=NCC(CN4CCSCC4)S3)[nH]c12)S(=O)(=O)c1ccccn1 (stereo not given)	142 to 144
COC1C=C2CC(OC(C)=O)CCC2(C)C2CCC3(C)C(=O)CCC3C12 (stereo not given)	175 to 178
N#Cc1ccc(N2CCN(CCC3CCc4ccccc43)CC2)cc1 (stereo not given)	157 to 158
CC(=O)N1CCc2c(S(=O)(=O)Cl)ccc(Cl)c2C1	105 to 115
Cc1cccc(C(=O)c2[nH]c3cc(Cl)ccc3c2CC(=O)O)c1	182 to 184
CCOC(=O)C(=O)c1cn(CCN(C)C)c2ccccc12	71 to 72
CCCCCCS(=O)(=O)NC(=O)CCc1cc(OC(C)C)nn1Cc1ccc(Cl)cc1Cl	103 to 106
CC12CCC(O)CC1CCC1C2CCC2(C)C(=O)CCC12F (stereo not given)	201 to 202
COC(=O)c1ccccc1-c1cc(-c2ccc(Cl)cc2)no1	89.5 to 91
N[C@@H](Cc1cc(F)cc(F)c1)[C@H](O)CO	93
CC(C)(C)OC(=O)c1ncn2c1[C@@H]1CCN1C(=O)c1ccccc1-2	185 to 187
CC(C)n1nc(-c2sc(NC(=O)c3ccc(C(F)(F)F)cc3)nc2-c2ccccc2)ccc1=O	162 to 167
O=C(O)CCc1cc(OCc2cc(COc3ccc(Cl)cc3Cl)cc(OCc3ccccc3)c2)nn1-c1ccccc1	126 to 130
Cn1cc(CO)c(=O)c2ccc(Cl)cc21	204 to 206
COC(=O)C(=CNc1ccsc1C(=O)O)SC	179 to 180
COC(=O)C1Oc2ccccc2Cc2ccccc2O1	107 to 110
CCCCCCCC[C@H](N[C@@H](C)C(=O)O)C(=O)OCC	127 to 128
Cc1ccccc1C(Oc1cc(OCc2ccc3ocnc3c2)ccc1C#N)C(=O)O (racemic)	189 to 191
C=CC(=O)N1CCSc2ccccc2C1	108 to 110
O=C(Nc1ccc(-n2nc(C(F)(F)F)cc2C(F)(F)F)cc1)c1cc(Br)c(Br)s1	142 to 144

SMILES	melting point [°C]
C=C(C)C(=O)OCCC(=O)Oc1ccc(-c2cc(OC(=O)C(=C)C)cc(-c3ccc(OC(=O)CCOC(=O)C(=C)C)cc3)c2)cc1	88
Cc1cc(C)cc(-c2cnn3c(-c4cccc(-c5nnn(Cc6ccccn6)n5)c4)ccnc23)c1	77
COc1ccc(CNc2nc(-n3ccnc3)nc3sc(C)cc23)cc1OC	207
C=CC[C@@H]1C[C@@H](COS(C)(=O)=O)NC1=O	62 to 63
NC(=O)CCNc1cc(Oc2ccc(C(F)(F)F)cc2Cl)ccc1[N+](=O)[O-]	137 to 138
O=C(Nc1ccccc1C(=O)N1CCCCC1)N[C@@H](Cc1ccc(NC(=O)c2c(Cl)cccc2Cl)cc1)C(=O)O	191
CCOC(=O)C1=C(C)NC(C)=C([N+](=O)[O-])C1c1cccnc1 (stereo not given)	264
ClCCc1c[nH]c(-c2ccc(OCc3ccccc3)cc2)n1	163 to 165
COc1ccccc1N1CCN(C(=O)Nc2nc3ccccc3nc2OC)CC1	177 to 178
CC(C)c1cccc(C(C)C)c1NC(=O)NCCN1CCN(CCSc2nc3ccccc3[nH]2)CC1	120 to 122
Nc1cc(=O)n2cc(Cl)c(C(c3c(F)ccc(F)c3F)S(=O)(=O)CCC(F)(F)F)cc2n1 (stereo not given)	247
N#CC(Cl)=C(Cl)SC(Cl)=C(Cl)C#N	87
CC(C)c1cc(C=Cc2ccccc2O)on1	129 to 133
NCc1ccc(CNC(=O)[C@@H](CCCNC(N)=N[N+](=O)[O-])NC(=O)C(c2ccccc2)c2ccccc2)cc1	198 to 199
O=C1c2ccccc2C(=O)c2c1nc1ccc(Cl)cn21	> 300
CCOC(=O)c1c(C(F)(F)C(F)(F)F)[nH]c(C(F)(F)C(F)(F)F)c1C(=O)OCC	64.5 to 65.5
CCOC(=O)CNC(=O)CCc1cc(Cl)ccc1C(=O)CCCNC(C)=O	96
Cc1csc(-c2nc3c4ccccc4ccn3c2N)c1	152 to 155
Nc1ccc(C2(OC(=O)Nc3ccccc3)NCCC(c3ccccc3)O2)cc1 (stereo not given)	110
O=C(NCc1ccccn1)Nc1cc(-n2c(=O)n(-c3ccccc3)c3ccccc32)ccn1	231 to 232
CCc1nc2c(N)nc3ccccc3c2n1CC(C)(C)OCCS(C)(=O)=O	206 to 209
CC12CC(=O)C3C(CCC4CC(O)CCC43C)C1CCC2C#N (stereo not given)	190 to 192
COC(=O)c1cccc2cc(-c3ccccc3)oc12	45 to 47
Oc1cc2ccc(CCCCCl)cc2cc1O	54 to 59
O=[S@@]1CCC(c2ccccc2)(c2ccccc2)[C@@H]2CNC[C@@H]21 (racemic)	192
O=C(O)CCc1cccc(-c2nc(=O)c3ccccc3s2)n1	243 to 244

Results, then the compound that gave them:

melting point [°C]	SMILES
142 to 144	N#Cc1c(N2CCCCC2)cc(-c2ccc3ccccc3c2)c2c1Cc1ccccc1-2
175 to 177	Cc1nn(-c2cc(Oc3ccc(C#N)cc3)c(Cl)cc2F)c(=O)n1C(F)F
127	CC(C)CCNC(=O)c1ccccc1-c1ccccc1CNS(=O)(=O)c1ccccc1
124 to 126	CC(C)(C)OC(=O)CN1CCN[C@@H](Cc2ccc(OC(C)(C)C)cc2)C1=O
191 to 193	CC(C)S(=O)(=O)n1c(N)nc2ccc(C(=O)c3ccccc3)cc21
> 300	NC(=O)Nc1cccc2c1C(=O)c1c-2n[nH]c1-c1csc(Cl)c1
207 to 208	N#Cc1ccc2cc(OCCC(c3ccccc3)(c3ccccc3)c3ccccc3)ccc2c1
147 to 150	O=C(Cn1nc(Cl)nc1Cl)N1CCC(c2nc(C3=NOC(c4c(F)cccc4F)C3)cs2)CC1 (stereo not given)
97 to 98	CCOC(=O)c1c(O)nc(SC(C)C)n1C(C)C
164 to 175	CC(=NNC(=O)c1ccc2n1Cc1ccccc1N(C(=O)c1ccc(C3CCCCC3)cc1)C2)N(C)C
63 to 63.5	CCCCCCCCC(=O)Nc1cccc([N+](=O)[O-])c1
114 to 115	N[C@@H](Cc1ccc(C(F)(F)F)cc1)[C@H](O)c1ccc(Oc2ccccc2)cc1 (racemic)
250 to 252	O=C(O)CN1CCC(Cc2ccccc2)CC1
198	CC(=O)NC1CCC2=C(CC1)C(=O)C(CC(=O)O)C=C2 (stereo not given)
125	CCOC(=O)/C=C/[C@H]1CC[C@H](c2ccc(C#N)cc2)CC1
231 to 234	COc1ccc2c(c1OC)CCC1CN(C(=O)CCc3ccc([N+](=O)[O-])cc3)CC21 (stereo not given)
214 to 217	CC(c1oc2ccccc2c(=O)c1-c1cccc(F)c1)n1nc(-c2ccc(N(C)C)cc2)c2c(N)ncnc21 (stereo not given)
133 to 136	CN1CCN(c2ccc(C(=O)C(C)(C)N3CCN(C)CC3)cc2)CC1
218 to 220	CC(C)n1nc(-c2c(-c3ccccc3)nn3ccc(OCc4ccncc4)cc23)ccc1=O
68 to 70	CC=NN(C(=O)c1ccccc1)c1ccc(OC)cc1
222 to 224	O=C(O)c1ccc(CCn2ccn([C@H]3CCc4c(F)cc(F)cc4C3)c2=S)cc1
84	COC(=O)C(=O)NCCc1ccc(OCc2ccccc2)c(OCc2ccccc2)c1
204 to 205	CS(=O)(=O)c1ccc(-n2cnc3ccc(-c4nnc(CCc5cccc(C(F)(F)F)c5)o4)cc32)cc1
140 to 141	Nc1cc(Oc2ccc3c(c2)OCCN3)ncn1

melting point [°C]	SMILES
89 to 90	OC(c1ccc(Br)cc1)(c1ccc(Br)cc1)c1cncnc1
32 to 34	CCOC(=O)C(C)(C)CCCCOc1cc(C)c(N)c(C)c1
131	Cc1cccc(-c2ccccc2NC(=N)N2CCCCC2)c1
146 to 148	COc1cc2cc(OCc3ccccc3)cnc2cc1OC
248 to 252	CN(C)c1nccc2c1nnn2Cc1ccccc1F
126 to 128	CC(C(=O)N(C)C)n1cc(Cl)c(-c2c(Cl)cccc2Cl)n1 (stereo not given)
147 to 148	CCCCCS(=O)(=O)NC(=O)/C=C/c1cc(C(C)(C)C)nn1Cc1ccc(C(F)(F)F)cc1Cl
124 to 126	Oc1ccccc1NCCCCCCBr
246 to 248	Oc1ccc(Nc2ccncc2)cc1
65 to 80	CC(=O)C(=Cc1cccc([N+](=O)[O-])c1)C(=O)OC(C)C(C)(C)NCCC(c1ccccc1)c1ccccc1 (stereo not given)
82 to 83	CCOC(=O)c1cnc(S(=O)Cc2ccccc2)n1-c1c(CC)cccc1CC (stereo not given)
113 to 116	O=C(O)c1cc(=O)c2ccc(OCCCCCOc3ccc4c(=O)ccoc4c3)cc2o1
35 to 36	CCCCCCCCCCCCCCOc1ccccc1CBr
173 to 176	CCCCCNc1nc(NC(C)C)c2ncn(CC(=O)O)c2n1
147	CCNc1nc(Cl)c(SC)c(Cl)n1
166 to 168	CNc1ccnc(Cl)c1N
122 to 124	CC(Oc1ccccc1Cl)c1nnc(C2C(O)NC(=O)N2C)s1 (stereo not given)
96 to 98	CC(CNC(=O)Cc1ccccc1)NCC(O)c1ccccc1 (stereo not given)
176 to 177	CCOC(=O)c1c(Cn2cncn2)nc2cc(OC)c(OC)cc2c1-c1ccc(OC)c(OC)c1
98 to 99	O=[N+]([O-])c1cccc(COc2cccc3cccnc23)c1
188 to 190	NC(=S)Nc1ccc(F)cc1-c1ccccc1
262 to 263	COc1ccc(-c2cc(=O)n(C)c(=O)[nH]2)cc1OC
110 to 112	O=C(c1csc2ccccc12)C1CCN(CCc2ccccc2)CC1
> 250	CN1CC(=O)Nc2ccc(Cl)cc2C1=O
